# Reference: patent US9023354B2, “Combination therapy with MDM2 and EFGR inhibitors” (priority 2010, dated 2015)
# Read-outs that look alike come from different tables or passages of the source.
# Key:
# [1] = target: p53/MDM2 binding (full length MDM2) (Homo sapiens (Human), UniProt Q00987); assay: AlphaScreen p53/MDM2 binding with full length GST-MDM2; conditions: FIG. 1, read-out: inhibition of p53/MDM2 binding EC50
# A431 cells [2] = assay: A431 cell proliferation assay (MTT), alone and in combination with Tarceva; assay type: cell-based; conditions: for synergistic effects with Tarceva in A431 cell proliferation (in words) / A431 Cell Proliferation CI Value: combination with Tarceva; for A431 Cell Proliferation CI Value: CI <0.8 indicates synergy
# p53/MDM2 binding = p53/MDM2 binding (Homo sapiens (Human), UniProt Q00987); assay: AlphaScreen measurement of p53/MDM2 interaction (truncated GST-MDM2 aa 1-150)
# Sequence of p53/MDM2 binding (Q00987 1-150): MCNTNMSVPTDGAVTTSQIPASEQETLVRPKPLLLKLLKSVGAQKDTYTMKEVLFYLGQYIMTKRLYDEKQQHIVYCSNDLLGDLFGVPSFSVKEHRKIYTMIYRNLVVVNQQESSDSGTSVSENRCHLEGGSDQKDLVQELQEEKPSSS
# Procedure: The following example describes an assay that measured the ability of compounds to inhibit the binding of p53 to MDM2 using the AlphaScreen assay technology (PerkinElmer). […] Recombinant, truncated, human, N-terminal GST-MDM2 (aa 1-150) was obtained from GeneScript. Wild-type, full length human N-terminal 6-his p53 was purchased from SignalChem.
# Resulting in a final reaction volume of 24 μl PBS, 0.1% Tween-20, and 10% glycerol, 30 ng of MDM2 was added, followed by the addition of 10 of compound diluted in 100% DMSO that provided a final DMSO concentration of 4%. 30 ng of p53 was then added, mixed, and incubated at room temperature for 1 hour. Glutathione donor beads and Nickel acceptor beads (0.5 μg each; PerkinElmer) were added under subdued lighting conditions to a final reaction volume of 30 μl/well in a 96 well, ½ volume Proxima plate. The reaction was incubated at room temperature with shaking for 18 hrs in the dark. Analysis was then performed on a PerkinElmer EnSpire plate reader to determine the ability of compounds to inhibit the binding of p53 to MDM2.
# A431 cells [3] = assay: Caspase 3/7 activity, measurement of apoptosis; assay type: cell-based; conditions: 10 μM compared to 10 μM Tarceva
# [4] = system: p53-induced reporter gene activity; assay: p53 reporter gene assay in HEK293 cells; assay type: cell-based; conditions: 10 μM
# Procedure: This example describes an assay that measures the ability of compounds to stimulate p53-induced reporter gene activity. In order for p53 activity to be observed, the interaction of p53 with MDM2 must be inhibited. Methods are according to Examples 1-5 unless otherwise specified.
# HEK293 cells were transiently transfected with the inducible p53-responsive firefly luciferase reporter and constitutively-expressing Renilla construct. After 16 hrs of transfection at 37° C., 5% CO2, the transfection media was removed and 200 μl/well of assay media was added. The cells were then incubated for 8 hrs at 37° C., 5% CO2.
# […] of compound(s) was added to the cells and incubated for 16 hrs at 37° C. and 5% CO2. The cells were carefully washed with 200 μl of PBS. 20 μl_of lysis buffer was then added to each well and incubated at room temperature for 15 minutes with shaking.
# The lysis buffer supernatant was transferred to a white/opaque CoStar 96-well plate and 100 μl of firefly luceriferase assay substrate was added. The luminescence in each well was determined using a Polarstar plate reader.
# 100 μl of Stop and Glow reagent was added to each well, mixed, and the luminescence generated by the Renilla luciferase was determined using a Polarstar plate reader. The Renilla signal was used to normalize the transfection efficiency and cell viability.
# [5] = Stability toward liver microsome incubation; assay type: in vitro ADME
# A549 cells = assay: DNA fragmentation (Cell Death Detection ELISA), measurement of apoptosis; conditions: for activation at 1 µM / activation at 10 µM: Homo sapiens
# Procedure: The plates were allowed to incubate overnight @ 37° C., 5% CO2. On day 2, the media was removed from the plates and 160 μl media containing 5% FBS was added. 40 μl of media-containing test compound in 100% DMSO (prepared at 5× the dosing concentration) was added to the existing media resulting in a final DMSO concentration of 0.5%. Cells were incubated in the presence of a compound for 24 hrs @ 37° C., 5% CO2.
# After 24 hrs, the abovementioned plates were centrifuged at 200×g for 10 min. The media was removed by gently inverting the plate and disposing of the media onto a paper towel. The plates were tapped gently to remove excess media. 200 μl lysis buffer was added to each well, and mixed by shaking at 300 rpm. The plates were incubated at room temperature for 30 min. The plates were centrifuged at 200×g for 10 min and 20 μl of lysis supernatant was removed for use in ELISA analysis to detect cell death.
# 20 μl of the cell lysis supernatant was placed into streptavidin-coated plates with 20 μl positive control and 20 μl incubation buffer negative control. Add 80 μl Immunoreagent (for DNA fragment detection) to each well. The wells were covered with foil adhesive and shaken at 300 rpm for 2 h at room temperature. The supernatant solution was removed and the wells were washed 3 times with 300 μl incubation buffer. 100 μl of ABTS detection substrate was added to each well. The wells were incubated on a plate shaker at 250 rpm for approximately 10-20 min. 100 μl ABTS of stop buffer was then added. […] The absorbance measures the colored product spectrophotometrically, correlating with apoptosis.
# The percent increase in DNA fragmentation produced by compounds at a concentration of 1 and 10 μM were compared to background, and to the response produced by 500 nM staurosporin.
# [6] = system: apoptosis-related proteins in A549 cells; assay: Proteome profile of apoptosis-related proteins; assay type: cell-based, human; conditions: 5 μM
# Text: This example describes an assay that measured the relative expression levels of 35 apoptosis-related proteins in a single sample of whole cell extract. Methods are according to Examples 1-2 unless otherwise specified.
# The protocol and reagents were purchased from R&D systems (Human apoptosis array kit; cat. #ARY009). The kit consisted of an antibody array spotted on nitrocellulose membranes with each specific antibody printed in duplicate. The detection antibodies were biotinylated so they could be used with a streptavidin-HRP conjugate designed for chemiluminescent imaging. The protocol was modified to utilize the LiCor infrared imaging technology by substituting an infrared 680 nm-tagged streptavidin.
# The following day, two μl of compound dilutions in 100% DMSO were added to the appropriate wells resulting in a final concentration of 5 μM. The plates were then incubated for 6 hours at 37° C., 5% CO2, and 85% relative humidity. Following incubation, the cells were washed with 2 ml of PBS, then lysed with 500 μl/well of Lysis buffer, supplemented with a 1/200 dilution of mammalian protease inhibitor cocktail (Sigma Aldrich). The plates were shaken for 30 min at room temperature, spun @ 14,000×g for 5 minutes. 250 μl of the supernatant was removed and added to 1.25 ml of Assay buffer 1. The supernatant and Assay buffer 1 were incubated with membranes overnight at room temperature with shaking.
# The following day, the membranes were washed 3 times for 10 min each, with 1× wash buffer in individual 50 ml Falcon tubes at room temperature with rotation. The membranes were incubated with a 1/100 dilution of biotinylated detection antibodies for 3 hours at room temperature with shaking.
# The membranes were washed, then incubated with a 1/1000 dilution of IR 680 nm-labeled streptavidin (LiCor) for 60 minutes with shaking in the dark. The membranes were again washed. Excess buffer was blotted from membranes, placed between two pieces of transparent plastic and imaged on the LiCor infrared imager. The LiCor Odyssey software is used to quantitate the pixel intensity of each spot in the array.
# First, several compounds were evaluated in a proteome profiling array system containing antibodies to 35 apoptosis-related proteins. In this assay (see Example 3), the relative expression levels of these proteins in cell extracts are measured from treated and non-treated A549 cells.
# [7] = system: p53 and phospho-p53 (S15) in A549 NSCLC cells; assay: p53 In-Cell Western; assay type: cell-based, human; conditions: about 1-3 μM
# [8] = Homo sapiens, A-431, A431 cells, further studies, Example 9, Table 7A, read-out: A431 Cell Proliferation (IC50 Value)
# [9] = Homo sapiens, A-431, A431 cells, preliminary assessment, Example 8, Table 6A, read-out: A431 Cell Proliferation (IC50)
# [10] = Table 7C, read-out: p53/MDM2 IC50 Value
# [11] = Table 9, read-out: Inhibition of p53/MDM2 Binding IC50 Value
# [12] = A549, read-out: % Inc. Relative to Staurosporin (500 nM), DNA fragmentation
# [13] = A549, read-out: % Inc. over Background, DNA fragmentation
# [14] = A431 cells, further studies, Example 9, Table 7A, read-out: A431 Cell Proliferation (IC50 Value)
# Sequence of p53/MDM2 binding (full length MDM2) (Q00987 whole entry): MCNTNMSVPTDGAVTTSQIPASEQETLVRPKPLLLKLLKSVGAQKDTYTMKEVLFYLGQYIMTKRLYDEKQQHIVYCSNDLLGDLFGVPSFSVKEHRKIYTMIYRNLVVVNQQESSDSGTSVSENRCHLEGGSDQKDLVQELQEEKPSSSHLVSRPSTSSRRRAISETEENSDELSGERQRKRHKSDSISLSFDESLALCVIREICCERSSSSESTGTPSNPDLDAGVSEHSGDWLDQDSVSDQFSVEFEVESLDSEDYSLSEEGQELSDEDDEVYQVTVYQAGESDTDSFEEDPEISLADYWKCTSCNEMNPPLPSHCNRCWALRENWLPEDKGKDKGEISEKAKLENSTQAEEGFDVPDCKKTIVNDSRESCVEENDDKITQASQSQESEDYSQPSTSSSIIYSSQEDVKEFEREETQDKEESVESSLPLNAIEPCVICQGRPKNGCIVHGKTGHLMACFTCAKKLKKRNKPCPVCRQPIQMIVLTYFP
structure (smiles),measurement,setting,value
Cc1ccnc(NC(c2ccc3cccnc3c2O)c2sccc2C)c1 (centres unmarked) [AD4-10963],EC50,[1],100 nM
same,IC50,A431 cells [2]; [8],3400 nM
same,IC50,A431 cells [2]; [9],3400 nM
same,synergistic effects with Tarceva in A431 cell proliferation (in words),A431 cells [2],produced the greatest effects
same,A431 Cell Proliferation CI Value,"A431 cells [2]; Example 8, Table 6B",0.43
same,A431 Cell Proliferation CI Value,"A431 cells [2]; Example 9, Table 7B",0.63
same,IC50,p53/MDM2 binding; [10],2000 nM
same,IC50,p53/MDM2 binding; [11],2000 nM
same,Caspase 3/7 activity % Increase Relative to Tarceva,A431 cells [3],38%
CCOc1ccc(C(Nc2ccccn2)c2cc(Cl)c3cccnc3c2O)cc1 (centres unmarked) [AD4-10953],stimulation of p53 reporter gene activity,[4],9.7 fold
Cc1cc(Cl)cnc1NC(c1ccc(C(F)(F)F)cc1)c1ccc2cccnc2c1O (centres unmarked) [AD4-13041],IC50,A431 cells [2]; [8],2000 nM
same,A431 Cell Proliferation CI Value,"A431 cells [2]; Example 9, Table 7B",0.69
same,stability (toward liver microsome incubation),[5],increased stability over AD4-10628
Oc1c(C(Nc2ncc(C(F)(F)F)cc2F)c2ccc(Cl)cc2Cl)ccc2cccnc12 (centres unmarked) [AD4-13165],activation at 1 µM,A549 cells; [12],24%
same,activation at 10 µM,A549 cells; [12],74%
same,activation at 1 µM,A549 cells; [13],172%
same,activation at 10 µM,A549 cells; [13],582%
same,phosphorylated forms of p53,[6],increased all three phosphorylated forms of p53
same,stability (toward liver microsome incubation),[5],increased stability
Cc1ccc(C)c(C(Nc2cccnc2)c2cc(Cl)c3cccnc3c2O)c1 (centres unmarked) [AD4-10944],IC50,A431 cells [2]; [14],1800 nM
same,IC50,"A431 cells [2]; A431 cells, preliminary assessment, Example 8, Table 6A, read-out: A431 Cell Proliferation (IC50)",1800 nM
same,stimulation of p53 reporter gene activity,[4],7.5 fold
Oc1c(C(Nc2ccc(Cl)cn2)c2ccc(C(F)(F)F)cc2)ccc2cccnc12 (centres unmarked) [AD4-13053],A431 Cell Proliferation CI Value,"A431 cells [2]; Example 9, Table 7B",0.78
same,stability (toward liver microsome incubation),[5],increased stability over AD4-10628
COc1ccc(C(Nc2cc(C)ccn2)c2ccc3cccnc3c2O)cc1O (centres unmarked) [AD4-1505],EC50,[1],270 nM
same,IC50,A431 cells [2]; [8],3700 nM
same,IC50,A431 cells [2]; [9],3700 nM
same,synergistic effects with Tarceva in A431 cell proliferation (in words),A431 cells [2],produced the greatest effects
same,A431 Cell Proliferation CI Value,"A431 cells [2]; Example 8, Table 6B",0.45
same,A431 Cell Proliferation CI Value,"A431 cells [2]; Example 9, Table 7B",0.29
same,stimulation of p53 reporter gene activity,[4],42.5 fold
same,IC50,p53/MDM2 binding; [10],3600 nM
same,IC50,p53/MDM2 binding; [11],4200 nM
same,Caspase 3/7 activity % Increase Relative to Tarceva,A431 cells [3],45%
Cc1cc(Cl)cnc1NC(c1ccc(C(F)(F)F)cc1F)c1ccc2cccnc2c1O (centres unmarked) [AD4-13042],IC50,A431 cells [2]; [8],2200 nM
same,A431 Cell Proliferation CI Value,"A431 cells [2]; Example 9, Table 7B",0.81
same,stability (toward liver microsome incubation),[5],increased stability
Cc1cc(Cl)cnc1NC(c1ccc2cccnc2c1O)c1c(F)c(F)c(OCC(F)(F)F)c(F)c1F (centres unmarked) [AD4-13243],S15p-p53 (phosphorylated S15 p53),[7],significantly increased
same,total p53 expression,[7],significantly increased
same,DNA fragmentation / apoptosis (in words),A549 cells; A549 cells,increased DNA fragmentation
same,"% Inc. over Background, DNA fragmentation","A549 cells; A549 cells, 1 μM",551%
same,"% Inc. over Background, DNA fragmentation","A549 cells; A549 cells, 10 μM",716%
same,IC50,A431 cells [2]; [14],2200 nM
same,phosphorylated forms of p53,[6],increased all three phosphorylated forms of p53
